Results taken from patent US11419806B2, “Prebiotic oral care methods using a saccharide” (Colgate-Palmolive Company, priority 2013, dated 2022).

Tests used:
[1] = tested on: beneficial oral bacteria and pathogenic oral bacteria; test: Twenty-four hour optical density, overall prebiotic assessment; assay type: cell-based
Excerpt: Substrates that were able to increase the growth (or maximal growth density or extent of growth) of at least one of the above beneficial bacteria while not or only minimally increasing the growth (or maximal growth density) of the pathogenic bacteria are considered to be prebiotic compounds.
The extent of growth of the tested bacteria in response to selected saccharides (myo-inositol, D-lactitol, D-turanose and N-acetyl-D-mannosamine) was investigated by setting up growth curves in a nutritionally rich medium (brain heart infusion broth (BHI), Oxoid), over 24 hours. Late exponential growth phase liquid cultures were prepared by transferring the respective bacterium from blood agar plates to BHI and overnight incubation at 37° C. in an anaerobic atmosphere for A. viscosus, V. parvula, F. nucleatum, P. gingivalis, P. intermedia, T. forsythia, A. naeslundii, and C. sputigena, and in a 5% CO2 environment for S. salivarius, S. sanguinis, S. mitis, A. actinomycetemcomitans, S. mutans, S. sobrinus and S. gordonii. […]
For each combination of bacterium/saccharide, and for each of their respective controls (i.e. the particular bacterium in the nutritionally rich medium with no saccharide), the optical density was measured at 630 nm (OD630) at 0 h and 24 h (Thermo Scientific Multiskan Ascent). Additionally, the OD630 for combinations of bacterium/saccharides grown in a 5% CO2 environment were also measured every hour between 0 h and 9 h.
The experiment was carried out on three different days (thus providing 3 biological replicas) and on each day the experiment was carried out in quadruple (thus providing 4 technical replicas) for each combination of bacterium with saccharide and for each control. For each day and for each combination, the average (mean) of the values obtained (as detailed above) for the four technical replicas was calculated to provide a single value for each combination on each day. […]

[2] = tested on: beneficial oral bacteria and pathogenic oral bacteria; test: Microarray screen, overall prebiotic assessment; assay type: cell-based
Procedure: Substrates that were able to increase the metabolic activity of at least one of the above beneficial bacteria while not or only minimally increasing the growth of the pathogenic bacteria are considered to be prebiotic substrates.
The extent of metabolic activity of the tested bacteria in the presence of the above-mentioned saccharides after 24 hours and 48 hours was investigated through a high throughput phenotype microarray system (PM) for microbial cells (Biolog Inc.). Each PM can contain up to 95 different biochemical compounds (e.g. saccharides) that may act as substrates for bacteria as well as one negative control, not containing the substrates. Microarray plates were used in which the different wells of each plate were pre-loaded (by the manufacturer, Biolog Inc.) with different saccharides to be tested. Each bacterial species was tested using a separate microarray plate. Thus, a single bacterial species was tested with a variety of saccharides on each particular plate. The microarrays are based on redox technology, using cell respiration as a universal reporter. Active cell respiration results in the reduction of a tetrazolium dye and in the formation of a strong color—for example, when using the tetrazolium dye “Biolog Redox Dye Mix D”, the color changes from transparent/colorless to purple when the dye is reduced. The observation of this color change indicates which of the substrates improve the metabolic activity and health of the cells.
Each bacterial species was collected from blood agar plates (incubated for 48 hours anaerobically at 37° C.) and transferred to an IF-0 Base inoculation fluid (Biolog Inc.), which is a nutritionally poor medium. The resulting cell suspension was adjusted to a transmittance of 42% (relative to the transmittance of the base inoculation fluid with no bacterial species present) at 492 nm using a BioRad SmartSpec 3000 Photometer (the adjustment being effected by adding either further inoculation fluid or further bacteria until the transmittance of 42% was achieved). A 1:5 dilution of this suspension was prepared by mixing 3 mL of the 42% transmittance cell suspension with 15 mL of an inoculation fluid (which inoculation fluid was formed by mixing 11.6 mL sterile water, 62.5 mL IF-0 base inoculation fluid and 0.9 mL of the tetrazolium dye “Biolog Redox Dye mix D”), resulting in a final cell density which was equal to 85% transmittance using a BioRad SmartSpec 3000 Photometer. For each of the saccharides tested, the microarray plate (obtained from the supplier (Biolog Inc.) with saccharides already present in the relevant wells in powder form) was directly inoculated with 100 μL/well of this 85% transmittance cell suspension.
All plates were incubated in an anaerobic atmosphere at 37° C. Color changes were measured spectrophotometrically at 492 nm (Thermo Scientific Multiskan Ascent) at 24 hrs and 48 hrs using the same plate at both time points. […] After 24 hrs and 48 hrs under continuous shaking in a Multiscan microplate reader, the optical density (OD) of the synthetic medium at 24 hours and 48 hours was measured (using the microplate reader) at a wavelength of 492 nm for each combination of bacterium/saccharide, and for each of their respective controls (i.e. which contained the particular bacterium but no saccharide).
The experiment was carried out three times for each combination of bacterium with saccharide, with each repeat being carried out on a different day (thus providing three biological replicas). The controls were also carried out three times, as above. The values shown are the average (mean) of the three single values obtained (as detailed above) for each combination of bacterium with saccharide, at 24 hrs and at 48 hrs.
This value was selected in order to exclude low-stimulating metabolites and avoid false positive results.

[3] = concentrations of 5, 10, 20 and 25 μmol/ml

| Structure (SMILES) | prebiotic effects (extent of growth, threshold value 1.25) ([1]; concentrations of 10, 20 and 25 μmol/ml) | prebiotic effects (metabolic activity, threshold value 2) ([2]; 24 hrs) | prebiotic effects (extent of growth, threshold value 1.25) [1, 3] | speed of metabolism by beneficial versus pathogenic bacteria (value of 2 reached at 24 hrs) ([2]; 24 hrs) | prebiotic effects (metabolic activity, threshold value 2) ([2]; 48 hrs) |
| --- | --- | --- | --- | --- | --- |
| OC[C@@H](O)[C@@H](O[C@H]1O[C@H](CO)[C@H](O)[C@H](O)[C@H]1O)[C@H](O)[C@@H](O)CO [D-Lactitol, 4-O-α-D-galactopyranosyl-D-glucitol] | exhibited prebiotic effects | exhibited prebiotic effects |  |  |  |
| OC[C@H]1O[C@@](O)(CO)[C@@H](O[C@H]2O[C@H](CO)[C@@H](O)[C@H](O)[C@H]2O)[C@@H]1O [D-Turanose, α-D-glucopyranosyl-(1→3)-α-D-fructofuranose] |  | exhibited prebiotic effects | exhibited prebiotic effects | metabolized faster by the beneficial bacteria than by the pathogenic bacteria |  |
| O[C@H]1[C@H](O)[C@@H](O)[C@H](O)[C@@H](O)[C@H]1O [Myo-Inositol, (1R,2R,3S,4S,5R,6S)-cyclohexane-1,2,3,4,5,6-hexol] |  | exhibited prebiotic effects |  |  | exhibited prebiotic effects |
| CC(=O)N[C@H](C=O)[C@@H](O)[C@H](O)[C@H](O)CO [N-acetyl-D-mannosamine, 2-acetamido-2-deoxy-D-mannose] |  | exhibited prebiotic effects | exhibited prebiotic effects | metabolized faster by the beneficial bacteria than by the pathogenic bacteria |  |
